Measured values taken from patent US11851676B2, “Human neural precursor cells with inducible STIM1 knockdown” (NATIONAL CENTRE FOR BIOLOGICAL SCIENCES, priority 2018, dated 2023).

Key:
[1] = system: SOCE in human NPCs; experiment: Thapsigargin-induced store release and SOCE Ca2+ imaging in human NPCs; assay type: cell-based; details: thapsigargin 10 μM store depletion, re-addition of 2 mM Ca2+; pharmacological inhibitors vs DMSO
Procedure: (A, B) Ca^2+-responses during ER-store release and SOCE induced by Thapsigargin (TG, 10 μM) measured using the ratiometric Ca^2+-indicator indo-1-AM in wild-type (WT) hNPCs (A) or hNPCs treated with pharmacological inhibitors of SOCE, BTP-2 and 2-APB at the indicated concentrations or DMSO as a solvent control (B). Each trace represents the mean+SEM for 25-100 cells. Ionomycin (Iono, 10 μM) was added at the end of each imaging to determine the peak F405/485 ratio obtained after saturation of the Ca′-indicator with Ca^2+ (C) Box plots quantifying the peak F405/485 values for store-release and SOCE in the indicated treatment conditions.
(Top) A representative Western blot showing levels of STIM1 protein in hNPCs transduced with an NTC (non-targeting control) or an sh-RNA targeting STIM1 (STIM1 KD). Actin serves as the loading control. […] (E) Ca^2+-responses during store-release and SOCE in hNPCs transduced with NTC and STIM1 KD. (F) Box plots quantifying the peak F405/485 values for store-release and SOCE in the indicated genotypes.

[2] = system: SOCE in NPCs; details: embryonic and adult mouse NSCs/NPCs; cited from earlier work
[3] = system: SVZ cells; details: pharmacological blockade of SOC, in vitro; cited from earlier work
[4] = system: SVZ cells; details: injection in brain lateral ventricle; cited from earlier work

SMILES	effect on SOCE in human NPCs [1]	effect on SOCE in mouse NPCs [2]	effect on proliferation of SVZ cells [3]	effect on SVZ cell proliferation in vivo [4]
NCCOB(c1ccccc1)c1ccccc1 [2-APB, 2-aminoethoxy-diphenyl borate]	significantly inhibited SOCE	blocked	–	–
Cc1nnsc1C(=O)Nc1ccc(-n2nc(C(F)(F)F)cc2C(F)(F)F)cc1 [BTP-2]	significantly inhibited SOCE	blocked	decreases proliferation	–
[La+3] [La^3+]	–	blocked	–	–
COc1ccc(CCCOC(Cn2ccnc2)c2ccc(OC)cc2)cc1 (centres unmarked) [SKF-96365]	–	–	decreases proliferation	diminishes SVZ cell proliferation
